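GI50 = concentration required for 50% inhibition of growth. At the TGI there is no net growth.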
Tests used:
Experiment in all cases: DTP human tumour cell line panel, 384-well format
[1] = system: 786-0 renal
[2] = system: A498 renal
[3] = system: A549 NSCLC
[4] = system: ACHN renal
[5] = system: BT-549 breast
[6] = system: CAKI-1 renal
[7] = system: CCRF-CEM leukemia
[8] = system: DU-145 prostate
[9] = system: EKVX NSCLC
[10] = system: HCT-116 colon
[11] = system: HCT-15 colon
[12] = system: HOP-62 NSCLC
[13] = system: HOP-92 NSCLC
[14] = system: HS 578T breast
[15] = system: HT29 colon
[16] = system: IGROV1 ovarian
[17] = system: K-562 leukemia
[18] = system: KM12 colon
[19] = system: LOX IMVI melanoma
[20] = system: M14 melanoma
[21] = system: MALME-3M melanoma
[22] = system: MCF7 breast
[23] = system: MDA-MB-231 breast
[24] = system: MDA-MB-435 melanoma
[25] = system: MDA-MB-468 breast
[26] = system: NCI-H226 lung
[27] = system: NCI-H23 lung
[28] = system: NCI-H322M lung
[29] = system: NCI-H522 lung
[30] = system: NCI/ADR-RES ovarian
[31] = system: OVCAR-3 ovarian
[32] = system: OVCAR-4 ovarian
[33] = system: OVCAR-5 ovarian
[34] = system: OVCAR-8 ovarian
[35] = system: PC-3 prostate
[36] = system: RPMI-8226 leukemia
[37] = system: RXF 393 renal
[38] = system: SF-268 CNS
[39] = system: SF-295 CNS
[40] = system: SF-539 CNS
[41] = system: SK-MEL-2 melanoma
[42] = system: SK-MEL-28 melanoma
[43] = system: SK-OV-3 ovarian
[44] = system: SN12C renal
[45] = system: SNB-75 CNS
[46] = system: SW-620 colon
[47] = system: T-47D breast
[48] = system: U251 glioblastoma
[49] = system: UACC-257 melanoma
[50] = system: UACC-62 melanoma
[51] = system: UO-31 renal
[52] = system: COLO 205 colon
[53] = system: HCC-2998 colon
[54] = system: HL-60(TB) leukemia
[55] = system: MOLT-4 leukemia
[56] = system: NCI-H460 NSCLC
[57] = system: SK-MEL-5 melanoma
[58] = system: SNB-19 CNS
[59] = system: TK-10 renal

Structure (SMILES): CC(=O)C1(O)Cc2c(O)c3c(c(O)c2C(OC2CC(N)C(O)C(C)O2)C1)C(=O)c1ccccc1C3=O (stereo unspecified)
- GI50 [1]: 0.0234 µM
- TGI [1]: 0.112 µM
- GI50 [2]: 0.0175 µM
- TGI [2]: 0.146 µM
- GI50 [3]: 0.0138 µM
- TGI [3]: 0.133 µM
- GI50 [4]: 0.0213 µM
- TGI [4]: 0.0896 µM
- GI50 [5]: 0.0201 µM
- TGI [5]: 0.0944 µM
- GI50 [6]: 0.0309 µM
- TGI [6]: 0.169 µM
- TGI [7]: 0.0156 µM
- GI50 [8]: 0.0113 µM
- TGI [8]: 0.136 µM
- GI50 [9]: 0.15 µM
- TGI [9]: 0.973 µM
- GI50 [10]: 0.0146 µM
- TGI [10]: 0.153 µM
- GI50 [11]: 0.0178 µM
- TGI [11]: 0.103 µM
- GI50 [12]: 0.0133 µM
- TGI [12]: 0.0346 µM
- GI50 [13]: 0.0351 µM
- TGI [13]: 0.265 µM
- GI50 [14]: 0.0118 µM
- TGI [14]: 0.129 µM
- GI50 [15]: 0.0277 µM
- TGI [15]: 0.106 µM
- GI50 [16]: 0.125 µM
- TGI [16]: 0.412 µM
- GI50 [17]: 0.015 µM
- TGI [17]: 0.116 µM
- GI50 [18]: 0.0115 µM
- TGI [18]: 0.0363 µM
- GI50 [19]: 0.0203 µM
- TGI [19]: 0.139 µM
- GI50 [20]: 0.0175 µM
- TGI [20]: 0.114 µM
- GI50 [21]: 0.0546 µM
- TGI [21]: 0.191 µM
- GI50 [22]: 0.0241 µM
- TGI [22]: 0.225 µM
- GI50 [23]: 0.0194 µM
- TGI [23]: 0.106 µM
- GI50 [24]: 0.0786 µM
- TGI [24]: 0.23 µM
- GI50 [25]: 0.0143 µM
- TGI [25]: 0.0343 µM
- GI50 [26]: 0.0257 µM
- TGI [26]: 0.128 µM
- GI50 [27]: 0.0232 µM
- TGI [27]: 0.0901 µM
- GI50 [28]: 0.19 µM
- TGI [28]: 0.572 µM
- GI50 [29]: 0.0296 µM
- TGI [29]: 0.162 µM
- GI50 [30]: 0.48 µM
- TGI [30]: 2 µM
- GI50 [31]: 0.0653 µM
- TGI [31]: 0.257 µM
- GI50 [32]: 0.178 µM
- TGI [32]: 0.482 µM
- GI50 [33]: 0.0447 µM
- TGI [33]: 0.242 µM
- GI50 [34]: 0.0316 µM
- TGI [34]: 0.145 µM
- GI50 [35]: 0.0605 µM
- TGI [35]: 0.214 µM
- TGI [36]: 0.0191 µM
- GI50 [37]: 0.0539 µM
- TGI [37]: 0.197 µM
- GI50 [38]: 0.0249 µM
- TGI [38]: 0.126 µM
- GI50 [39]: 0.019 µM
- TGI [39]: 0.0517 µM
- GI50 [40]: 0.0135 µM
- TGI [40]: 0.0755 µM
- GI50 [41]: 0.0519 µM
- TGI [41]: 0.0932 µM
- GI50 [42]: 0.0938 µM
- TGI [42]: 0.379 µM
- GI50 [43]: 0.0277 µM
- TGI [43]: 0.138 µM
- GI50 [44]: 0.0157 µM
- TGI [44]: 0.0597 µM
- GI50 [45]: 0.0334 µM
- TGI [45]: 0.144 µM
- GI50 [46]: 0.0132 µM
- TGI [46]: 0.178 µM
- GI50 [47]: 0.0421 µM
- TGI [47]: 0.296 µM
- GI50 [48]: 0.0203 µM
- TGI [48]: 0.105 µM
- GI50 [49]: 0.138 µM
- TGI [49]: 0.296 µM
- GI50 [50]: 0.018 µM
- TGI [50]: 0.123 µM
- GI50 [51]: 0.076 µM
- TGI [51]: 0.209 µM

Structure (SMILES): CC(=O)N1CCN(CCOc2ccc(C3CCN(C4=Nn5c(nnc5C(F)(F)F)CC4)CC3)cc2)CC1
- GI50 [1]: 8.6 µM
- TGI [1]: 69.3 µM
- GI50 [2]: 14.7 µM
- TGI [2]: 77.2 µM
- GI50 [3]: 14.2 µM
- TGI [3]: > 100 µM
- GI50 [4]: 15.3 µM
- TGI [4]: 62.8 µM
- GI50 [5]: 5.94 µM
- TGI [5]: 39.8 µM
- GI50 [6]: 3.53 µM
- TGI [6]: > 100 µM
- GI50 [7]: 4.06 µM
- TGI [7]: 19.3 µM
- GI50 [52]: 15.2 µM
- TGI [52]: > 100 µM
- GI50 [8]: 32 µM
- TGI [8]: > 100 µM
- GI50 [9]: 16.8 µM
- TGI [9]: > 100 µM
- GI50 [53]: 6.17 µM
- TGI [53]: 24.2 µM
- GI50 [10]: 13.4 µM
- TGI [10]: > 100 µM
- GI50 [11]: 18.1 µM
- TGI [11]: > 100 µM
- GI50 [54]: 3.79 µM
- TGI [54]: 14.7 µM
- GI50 [12]: 4.71 µM
- TGI [12]: 25.9 µM
- GI50 [13]: 14.5 µM
- TGI [13]: > 100 µM
- GI50 [14]: 4.78 µM
- TGI [14]: 31.2 µM
- GI50 [15]: 10.4 µM
- TGI [15]: > 100 µM
- GI50 [16]: 6.07 µM
- TGI [16]: 54.1 µM
- GI50 [17]: 3.66 µM
- TGI [17]: > 100 µM
- GI50 [18]: 12 µM
- TGI [18]: > 100 µM
- GI50 [19]: 3.75 µM
- TGI [19]: 17.9 µM
- GI50 [20]: 10.9 µM
- TGI [20]: > 100 µM
- GI50 [21]: 11.6 µM
- TGI [21]: 75.2 µM
- GI50 [22]: 3.42 µM
- TGI [22]: 83.1 µM
- GI50 [23]: 5.58 µM
- TGI [23]: > 100 µM
- GI50 [24]: 32.8 µM
- TGI [24]: > 100 µM
- GI50 [25]: 1.72 µM
- TGI [25]: 10 µM
- GI50 [55]: 4.72 µM
- TGI [55]: 21.4 µM
- GI50 [26]: 15 µM
- TGI [26]: > 100 µM
- GI50 [27]: 8.08 µM
- TGI [27]: > 100 µM
- GI50 [28]: 13 µM
- TGI [28]: > 100 µM
- GI50 [56]: 13.3 µM
- TGI [56]: 36.6 µM
- GI50 [29]: 2.9 µM
- TGI [29]: 20.1 µM
- GI50 [30]: 24.1 µM
- TGI [30]: 75.6 µM
- GI50 [31]: 7.08 µM
- TGI [31]: 35.3 µM
- GI50 [32]: 11.8 µM
- TGI [32]: 71.7 µM
- GI50 [33]: 15.1 µM
- TGI [33]: > 100 µM
- GI50 [34]: 12.3 µM
- TGI [34]: 60 µM
- GI50 [35]: 9.08 µM
- TGI [35]: > 100 µM
- GI50 [36]: 3.34 µM
- TGI [36]: 13.4 µM
- GI50 [37]: 5.97 µM
- TGI [37]: 27.5 µM
- GI50 [38]: 2.83 µM
- TGI [38]: 12.7 µM
- GI50 [39]: 23.6 µM
- TGI [39]: > 100 µM
- GI50 [40]: 13.5 µM
- TGI [40]: > 100 µM
- GI50 [42]: 24.2 µM
- TGI [42]: > 100 µM
- GI50 [57]: 4.83 µM
- TGI [57]: 19.7 µM
- GI50 [43]: 6.93 µM
- TGI [43]: 31.8 µM
- GI50 [44]: 22.5 µM
- TGI [44]: > 100 µM
- GI50 [58]: 17.9 µM
- TGI [58]: 83.4 µM
- GI50 [45]: 8.08 µM
- TGI [45]: 76.5 µM
- GI50 [46]: > 100 µM
- TGI [46]: > 100 µM
- GI50 [47]: 1.16 µM
- TGI [47]: 7.99 µM
- GI50 [59]: 20.9 µM
- TGI [59]: > 100 µM
- GI50 [48]: 16.5 µM
- TGI [48]: 67.3 µM
- GI50 [49]: 4.87 µM
- TGI [49]: 26.2 µM
- GI50 [50]: 4.27 µM
- TGI [50]: 88.8 µM
- GI50 [51]: 22.9 µM
- TGI [51]: > 100 µM

— PubChem BioAssay (NCI)
